Measured values: patent US12195482B1 (Arcus Biosciences, Inc., priority 2022, dated 2025)
pIC50: −log10 of the molar value.

Tests used:
p-AXL = molecular target: T1, p-AXL (Homo sapiens, UniProt P30530); assay: Axl phosphorylation inhibition ELISA in HEK293T cells transfected with NanoLuc-tagged AXL; assay type: cell-based; conditions: 1 h compound incubation, media (OptiMEM)
T1 construct: expressed in transfected cells; host or cells: HEK293T
T1 sequence (P30530 26-894): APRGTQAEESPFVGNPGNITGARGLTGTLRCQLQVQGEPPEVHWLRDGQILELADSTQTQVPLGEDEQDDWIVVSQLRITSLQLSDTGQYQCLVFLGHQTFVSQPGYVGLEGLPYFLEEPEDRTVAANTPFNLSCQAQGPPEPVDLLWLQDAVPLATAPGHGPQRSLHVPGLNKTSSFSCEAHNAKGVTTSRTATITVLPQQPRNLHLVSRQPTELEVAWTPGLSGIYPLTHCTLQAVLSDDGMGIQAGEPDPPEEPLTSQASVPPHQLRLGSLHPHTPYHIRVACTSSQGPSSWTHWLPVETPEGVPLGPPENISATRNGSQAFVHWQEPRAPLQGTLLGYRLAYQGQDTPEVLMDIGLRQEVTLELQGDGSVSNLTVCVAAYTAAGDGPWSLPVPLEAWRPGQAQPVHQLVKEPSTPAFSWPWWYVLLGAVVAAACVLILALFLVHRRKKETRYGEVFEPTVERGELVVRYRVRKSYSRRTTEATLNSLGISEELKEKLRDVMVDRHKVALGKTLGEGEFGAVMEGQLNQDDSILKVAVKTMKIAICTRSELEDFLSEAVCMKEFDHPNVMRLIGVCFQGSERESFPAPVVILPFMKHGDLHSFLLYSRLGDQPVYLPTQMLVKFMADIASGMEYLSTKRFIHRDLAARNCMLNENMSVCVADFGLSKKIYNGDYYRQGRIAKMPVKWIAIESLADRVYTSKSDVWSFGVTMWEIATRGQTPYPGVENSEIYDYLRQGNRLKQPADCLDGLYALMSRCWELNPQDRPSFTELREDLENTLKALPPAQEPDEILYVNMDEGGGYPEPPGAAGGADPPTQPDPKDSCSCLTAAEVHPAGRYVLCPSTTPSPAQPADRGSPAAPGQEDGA
Method in brief: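 Phospho-AXL detected by luminescence of NanoLuc tag after capture of cell lysate on biotinylated anti-phospho-tyrosine mAb plates (2 h). Lysates came from transiently transfected HEK293T cells treated 1 h at 37° C with serial 2-fold dilutions (22 points). IC50 by standard 4-parameter logistic fitting.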

Axl = molecular target: T2, Axl (Homo sapiens, UniProt P30530); assay: Biochemical potency, HTRF KinEASE-TK kinase assay; design: purchased Invitrogen; conditions: 5 nM AXL, 700 μM ATP
T2 sequence (P30530 26-894): T1 sequence (P30530 26-894)
Method in brief: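 HTRF 665/620 readout after a 2 h RT kinase reaction (final 700 μM ATP, 800 nM biotinylated TK substrate, 1% DMSO, HEPES pH 7.4 buffer) gave percent activity. Final enzyme was 5 nM for AXL, 1 nM for TYRO3 or MER, each preincubated 1 h with compound.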

pIC50 (p-AXL)	pIC50 (Axl)	Structure (SMILES)
6.00 to 7.00	> 7.00	Cc1cnc(-c2ccc(-c3n[nH]c4ncc(-c5ccc6c(c5)CC[C@@H](N5CCCC5)CC6)cc34)cc2)c(C)n1 [Example 189, 3,5-Dimethyl-2-(4-{5-[(7S)-7-(pyrrolidin-1-yl)-6,7,8,9-tetrahydro-5H-benzo[7]annulen-2-yl]-1H-pyrazolo[3,4-b]pyridin-3-yl}phenyl)pyrazine]
> 7.00	> 7.00	c1cnc(-c2ccc(-c3n[nH]c4ncc(-c5ccc6c(c5)CC[C@@H](N5C7COCC5C7)CC6)cc34)cc2)c(C2CCOCC2)c1 [Example 149, 6-[(7S)-2-(3-{4-[3-(Oxan-4-yl)pyridin-2-yl]phenyl}-1H-pyrazolo[3,4-b]pyridin-5-yl)-6,7,8,9-tetrahydro-5H-benzo[7]annulen-7-yl]-3-oxa-6-azabicyclo[3.1.1]heptane]
> 7.00	> 7.00	Cn1c(-c2ccc(-c3c[nH]c4ncc(-c5ccc6c(c5)CC[C@@H](N5C7COCC5C7)CC6)cc34)cc2)cccc1=O [Example 39, 1-Methyl-6-[4-[5-[(7S)-7-(3-oxa-6-azabicyclo[3.1.1]heptan-6-yl)-6,7,8,9-tetrahydro-5H-benzo[7]annulen-3-yl]-1H-pyrrolo[2,3-b]pyridin-3-yl]phenyl]pyridin-2-one]
6.00 to 7.00	> 7.00	COCCN1CCc2ccc(-c3cnc4[nH]nc(-c5ccc(-c6ncccc6C)cc5)c4c3)cc2CC1 [Example 15, 3-(2-Methoxyethyl)-7-{3-[4-(3-methylpyridin-2-yl)phenyl]-1H-pyrazolo[3,4-b]pyridin-5-yl}-2,3,4,5-tetrahydro-1H-3-benzazepine]
> 7.00	> 7.00	Cc1ccc(C#N)c(-c2ccc(-c3n[nH]c4ncc(-c5ccc6c(c5)CC[C@@](C)(N5CCC[C@H]5C)CC6)cc34)cc2)n1 [Example 71, 6-Methyl-2-(4-{5-[(7S)-7-methyl-7-[(2R)-2-methylpyrrolidin-1-yl]-6,7,8,9-tetrahydro-5H-benzo[7]annulen-2-yl]-1H-pyrazolo[3,4-b]pyridin-3-yl}phenyl)pyridine-3-carbonitrile]
< 6.00	> 7.00	Cc1cccnc1-c1ccc(-c2c[nH]c3nnc(-c4ccc5c(c4)CC[C@@H](N4C6COCC4C6)CC5)cc23)cc1 [Example 36, 6-[(7S)-3-[5-[4-(3-Methylpyridin-2-yl)phenyl]-7H-pyrrolo[2,3-c]pyridazin-3-yl]-6,7,8,9-tetrahydro-5H-benzo[7]annulen-7-yl]-3-oxa-6-azabicyclo[3.1.1]heptane]
> 7.00	> 7.00	CN1CCOc2ccnc(-c3ccc(-c4n[nH]c5ncc(-c6ccc7c(c6)CC[C@@H](N6C8COCC6C8)CC7)cc45)cc3)c21 [Example 151, 6-[(7S)-2-[3-(4-{4-Methyl-2H,3H,4H-pyrido[4,3-b][1,4]oxazin-5-yl}phenyl)-1H-pyrazolo[3,4-b]pyridin-5-yl]-6,7,8,9-tetrahydro-5H-benzo[7]annulen-7-yl]-3-oxa-6-azabicyclo[3.1.1]heptane]
6.00 to 7.00	> 7.00	Cc1cnc(-c2ccc(-c3n[nH]c4ncc(-c5ccc6c(c5)CC[C@@H](N5C7COCC5C7)CC6)cc34)cc2)c(C)n1 [Example 190, 6-[(7S)-2-{3-[4-(3,5-Dimethylpyrazin-2-yl)phenyl]-1H-pyrazolo[3,4-b]pyridin-5-yl}-6,7,8,9-tetrahydro-5H-benzo[7]annulen-7-yl]-3-oxa-6-azabicyclo[3.1.1]heptane]
> 7.00	> 7.00	Cc1cnc(C)c(-c2ccc(-c3n[nH]c4ncc(-c5ccc6c(c5)CC[C@@H](N5C7COCC5C7)CC6)cc34)cc2)n1 [Example 65, 6-[(7S)-2-{3-[4-(3,6-Dimethylpyrazin-2-yl)phenyl]-1H-pyrazolo[3,4-b]pyridin-5-yl}-6,7,8,9-tetrahydro-5H-benzo[7]annulen-7-yl]-3-oxa-6-azabicyclo[3.1.1]heptane]
6.00 to 7.00	> 7.00	Cc1cccnc1-c1ccc(-c2n[nH]c3ncc(-c4ccc5c(c4)CCC(N4CCCC4)C5)cc23)cc1 (stereo not shown) [Example 19, 3-Methyl-2-(4-{5-[6-(pyrrolidin-1-yl)-5,6,7,8-tetrahydronaphthalen-2-yl]-1H-pyrazolo[3,4-b]pyridin-3-yl}phenyl)pyridine]
> 7.00	> 7.00	Cc1cnc(C)c(-c2ccc(-c3n[nH]c4ncc(-c5ccc6c(c5)CC[C@@](C)(N5CCC[C@H]5C)CC6)cc34)cc2)n1 [Example 64, 2,5-Dimethyl-3-(4-{5-[(7S)-7-methyl-7-[(2R)-2-methylpyrrolidin-1-yl]-6,7,8,9-tetrahydro-5H-benzo[7]annulen-2-yl]-1H-pyrazolo[3,4-b]pyridin-3-yl}phenyl)pyrazine]
